Assay results taken from patent US12497405B2, “Bicyclic heterocycle compounds methods of use thereof for the treatment of herpes viruses” (Merck Sharp & Dohme LLC, priority 2019, dated 2025).
Like-named read-outs stand apart in the source and are kept apart here.

Legend:
HSV1 = assay: Viral qPCR assay, HSV1; assay type: cell-based; conditions: infected cells, viral genome copies by qPCR normalized to PPIA, read-out: HSV1 Cell EC50
Procedure, shortened: (§1)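 Read-out: viral gene copies by TaqMan qPCR, normalized to cellular PPIA and scaled between uninfected and DMSO-infected controls. Infected MRC5, Vero or MeWo cells were exposed to 10 compound concentrations (3-fold steps) for ~72 hrs. EC50 was from a 4-parameter curve.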

CMV = assay: Viral qPCR assay, CMV; assay type: cell-based; conditions: infected cells, viral genome copies by qPCR normalized to PPIA, read-out: CMV Cell EC50
Procedure, shortened: as §1

[1] = target: Human cytomegalovirus DNA polymerase (Human cytomegalovirus (strain AD169) (HHV-5) (Human herpesvirus 5), UniProt P08546); assay: CMV polymerase assay (AlphaLISA); assay type: biochemical; conditions: HCMV polymerase 0.2 nM, 30 min pre-incubation, 60 minute at 37° C.
Procedure, shortened: (§2)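 Baculovirus/SF21-expressed polymerase (HCMV 0.2 nM, VZV 0.4 nM final) was preincubated 30 min at room temperature with compound in HEPES pH 7.5/Mg buffer. Reactions with 1.6 nM DIG-primer/template, low nM dNTPs and biotin-dUTP ran 60 min at 37 °C. AlphaLISA readout, normalized to controls, 4-parameter IC50.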

HSV2 = assay: Viral qPCR assay, HSV2; assay type: cell-based; conditions: infected cells, viral genome copies by qPCR normalized to PPIA, read-out: HSV2 Cell EC50
Procedure, shortened: as §1

[2] = target: varicella zoster virus DNA polymerase (Varicella-zoster virus (strain Dumas) (HHV-3) (Human herpesvirus 3), UniProt P09252); assay: VZV polymerase assay (AlphaLISA); assay type: biochemical; conditions: VZV polymerase 0.4 nM, 30 min pre-incubation, 60 minute at 37° C.
Procedure, shortened: as §2

Compound	EC50 (HSV1; Human alphaherpesvirus 1, 72 h) [nM]	EC50 (CMV; Human betaherpesvirus 5, 72 h) [nM]	IC50 [1] [nM]	EC50 (HSV2; Human alphaherpesvirus 2, 72 h) [nM]	IC50 [2] [nM]	EC50 (HSV1; ~72 hrs) [nM]	EC50 (CMV; ~72 hrs) [nM]	EC50 (HSV2; ~72 hrs) [nM]
O=C1OC[C@@H]2C[C@@H](Oc3cc4c(=O)n(Cc5ccc(Cl)cc5)ccc4nc3-c3cnn(C(F)F)c3)CCN12 [Example 31]	139	101	3	46	2.1			
Cc1nc2cc(-c3cc4n(n3)CCN(CC(F)(F)F)C4)c(O[C@H]3CCN4C(=O)OC[C@@H]4C3)cc2c(=O)n1Cc1ccc(Cl)cc1 [Example 147]	274	229	7	96	12			
Cc1nc2cc(-c3cnn(C(F)F)c3)c(O[C@H]3CCN4C(=O)OC[C@@H]4C3)cc2c(=O)n1Cc1ccc(C#N)c(F)c1 [Example 66]	43	50	2.2	34	4.8			
O=C1OC[C@@H]2C[C@@H](Oc3cnc4ccn(Cc5ccc(Cl)cc5)c(=O)c4c3)CCN12 [Example 25]	1310	569	76	730	55			
Cc1nc2cc(-c3cnn(C(F)F)c3)c(O[C@H]3CCN4C(=O)OC[C@@H]4C3)cc2c(=O)n1Cc1ccc(C#N)cc1F [Example 64]	71	64	2.5	51	8.9			
CCc1nc2cc(-c3cnco3)c(O[C@H]3CCN4C(=O)OC[C@@H]4C3)cc2c(=O)n1Cc1ccc(C#N)cc1 [Example 65]	46	28	1.2	18	0.68			
Cc1cc2ccn(Cc3ccc(Cl)cc3)c(=O)c2cc1O[C@H]1CCN2C(=O)OC[C@@H]2C1 [Example 26]	673	298	13	356	18			
Cc1nc2cc(C3CC(C)(O)C3)c(O[C@H]3CCN4C(=O)OC[C@@H]4C3)cc2c(=O)n1Cc1ccc(Cl)cc1 (single isomer, unassigned) [Example 77]	157	217	3.1	165	3.4			
O=C1OC[C@@H]2C[C@@H](Oc3ccc4ccn(Cc5ccc(Cl)cc5)c(=O)c4c3)CCN12 [Example 23]	1320	482	40	961	26			
CC(O)Cc1nc2ccn(Cc3ccc(Cl)cc3)c(=O)c2cc1O[C@H]1CCN2C(=O)OC[C@@H]2C1 (single isomer, unassigned) [Example 33]	266	156	7.4	234	13			
Cc1nc2cc(-c3cc(C(F)(F)F)[nH]n3)c(O[C@H]3CCN4C(=O)OC[C@@H]4C3)cc2c(=O)n1Cc1ccc(C#N)cc1 [Example 76]	412	261	11	309	11			
O=C1OC[C@@H]2C[C@@H](Oc3cnc4c(C5CC5)cn(Cc5ccc(Cl)cc5)c(=O)c4c3)CCN12 [Example 1]			69		75	2700	1040	1540
O=C1OC[C@@H]2C[C@@H](Oc3cc4c(=O)n(Cc5ccc(Cl)cc5)ccc4cc3-c3cnn(C(F)F)c3)CCN12 [Example 27]	124	114	5.3	59	5.9			
Cc1nc2cc(-c3ccn(C(F)F)n3)c(O[C@H]3CCN4C(=O)OC[C@@H]4C3)cc2c(=O)n1Cc1ccc(Cl)cc1 [Example 13]			1		3.5	37	49	38
